In patent US20260224463A1, “COMPOSITIONS COMPRISING HYDROPHILIC ACTIVE INGREDIENTS IN OIL” (Lubrizol Advanced Materials, Inc., priority 2023, published 2026):

Key:
[1] = Visual inspection of physical appearance of the compositions; type: physicochemical; conditions: peptide 0.125 wt. % at the optimal ingredient concentrations, in words
Description: The stability of the formulations was determined by visual inspection and by quantification of the amount of active ingredient by high performance liquid chromatography (HPLC).
Visual inspection: The results are classified as OK or KO according to the physical appearance. OK represents a transparent solution at t=0 h with small particles at the bottom after 24h. KO represents solutions completely separated into phases, turbid or with an unacceptable precipitate at the bottom.

[2] = Log P of the peptides; type: physicochemical

Ac-EEMQRRAD-NH2 [PEP-2, Ac-Glu-Glu-Met-Gln-Arg-Arg-Ala-Asp-NH2]
compatibility of the peptide with the composition [1]: good compatibility
logP [2]: -5.84

CC(C)C[C@H](NC(=O)[C@H](Cc1ccccc1)NC(=O)CNC(=O)[C@@H](C)NC(=O)[C@@H](N)Cc1ccc(O)cc1)C(=O)O [PEP-9, H-Tyr-D-Ala-Gly-Phe-Leu-OH]
compatibility of the peptide with the composition [1]: good compatibility
logP [2]: -1.02

H-FWMKRKRVP-NH2 [PEP-8, H-Phe-Trp-Met-Lys-Arg-Lys-Arg-Val-Pro-NH2]
compatibility of the peptide with the composition [1]: good compatibility
logP [2]: -3.38
